# Measurements published in PMC12144822 (Parasites & Vectors, 2025).
# “Also recorded” adds a separate entry of the source. Like-named read-outs stand apart in the source and are kept apart here.
# Assays:
# [1] = target: Hsa-GABA α2β2γ2 (Homo sapiens, UniProt P18507+P47869+P47870); assay: Two-electrode voltage-clamp inhibition of GABA current, receptor expressed in Xenopus oocytes
# Text: (§1) Complementary DNA (cDNA) encoding for the human GABAA proteins α1 (NM_001127645.2), α2 (NM_001377146.1), α3 (KJ620007.1), α4 (NM_000809.4), α5 (NM_000810.4), α6 (NM_000811.3), β2 (XM_054352312.1), β3 (M82919.1), γ2 (NM_000816.3) and δ (NM_000815.5) were ordered from Genewiz (www.genewiz.com; Leipzig, Germany); for each gene, GenBank accession numbers are provided in parentheses. When necessary, silent mutations were introduced to break NheI or XhoI internal restriction sites. The corresponding open reading frames (ORF) were cloned into the pT7-TS transcription vector (introducing X. laevis β-globin untranslated cDNA to the 5’ and 3’ ends of the gene), following a procedure described in detail in a previous publication. The same process was used to obtain cDNA encoding canine GABAA proteins α4 (XM_025435560.1), α6 (XM_022417729.1) and δ (XM_005620414.2). Gene α2 (XM_025435664.1), α3 (XM_549343.5), α5 (XM_545805.6) and β3 (XM_025437408.1) were obtained by PCR; GenBank reference accession numbers are provided in parentheses. RNA extraction, cDNA synthesis and PCR amplification were performed as described previously. Total RNA was extracted from a piece of dog brain (Beagle breed; Canis lupus familiaris) from which 1 µg of total RNA (DNase-treated) was reverse-transcribed to cDNA using a (dT)30 primer and SuperScript III Reverse Transcriptase (Invitrogen, Thermo Fisher Scientific, Waltham, MA, USA). Gene-specific primers (Additional file 1: Table S1) were designed using Primer 3 software (http://frodo.wi.mit.edu/). […] The cycling conditions were: 98 °C for 30 s; then 38 cycles of 98 °C for 10 s, 58 °C for 30 s and 72 °C for 90 s; followed by 72 °C for 5 min. The dog subunits α1 (XM_546261.5), β2 (XM_014113040.1) and γ2 (XM_546259.5) had been previously amplified and described in a study by Rufener et al..
# (§2) Defoliculated X. laevis oocytes ordered from Ecocyte Bioscience (Dortmund, Germany) were microinjected with 15–25 nl of cRNA solution (5–50 ng/μl) per oocyte using an automated injector (Roboinject; Multi Channel Systems MCS GmbH, Reutlingen, Germany) and then incubated at 18 °C. All recordings were made 1–5 days post-cRNA injection and were performed at 18 ± 4 °C. Cells were superfused with OR2 medium (NaCl 88 mM, KCl 2.5 mM, HEPES 5 mM, CaCl2•2H2O 1.8 mM, MgCl2•7H2O 1.0 mM, pH 7.4). To ensure that γ2 subunits were integrated into the heteropentamers, we injected fivefold more γ2 than the other subunit cRNAs. Diazepam is a positive allosteric modulator of GABAR only if γ2 subunits are present. Therefore, we used this method to confirm the presence of human and dog GABAA receptor containing the γ2 subunit.
# (§3) Voltage-clamp measurements were performed as described by Rufener et al.. Oocytes were impaled with two electrodes filled with 3 M KCl, and their membrane potentials were maintained at − 80 mV throughout the experiment. […] Recordings were performed using an automated process equipped with standard two-electrode voltage-clamp configuration (HiClamp system; Multi Channel Systems MCS GmbH). Data were filtered at 10 Hz, captured at 100 Hz and analyzed using proprietary data acquisition and analysis software in MATLAB (Mathworks Inc., Natick, MA, USA). Additional analyses were performed using Excel (Microsoft, Redmond, WA, USA). […] Graphing the maximum inward currents against the log of agonist concentration produces typical concentration-activation and concentration-inhibition curves, which can be accurately described using individual Hill equations.
# [2] = target: Hsa-GABA α3β2γ2 (Homo sapiens, UniProt P18507+P34903+P47870); assay: as above
# Text: as §1, §2, §3
# [3] = target: Hsa-GABA α6β2γ2 (Homo sapiens, UniProt P18507+P47870+Q16445); assay: as above
# Text: as §1, §2, §3
# [4] = target: Hsa-GABA α2β3γ2 (Homo sapiens, UniProt P18507+P28472+P47869); assay: as above
# Text: as §1, §2, §3
# [5] = target: Hsa-GABA α5β2γ2 (Homo sapiens, UniProt P18507+P31644+P47870); assay: as above
# Text: as §1, §2, §3
# [6] = target: Hsa-GABA α1β2γ2 (Homo sapiens, UniProt P14867+P18507+P47870); assay: as above
# Text: as §1, §2, §3
# [7] = test system: human and canine GABARs; assay: Voltage-clamp inhibition, summary over human and canine receptors; type: cell-based; details: for inhibitory effect on human and canine GABARs (in words): tested up to 30 μM
# Protocol: as §2
# as §3, with “equations. The concentration-activation curves were fitted using the following equation: Y=100/1+10^H(logEC50-X) where Y is the normalized response, logEC50 is the logarithm of the concentration of agonist eliciting half-maximal current amplitude, X is the log of the dose or concentration, and H is the slope factor or Hill slope. The same equation was used for the concentration-inhibition curves but logEC50 was replaced by logIC50 (half-maximal inhibitory concentration).” for “equations.”
# (§4) The agonist and the drug were then washed off for 15 s and the oocyte was exposed again to the same drug concentration for 25 s before increasing to the next concentration.
# [8] = set-up: method as in PMID 33733534; details: cited from earlier work; for maximum in vivo concentration in dog plasma: oral treatment at the minimum recommended dose; for maximum plasma concentration: dose of 25 mg/kg body weight
# [9] = set-up: method as in PMID 40269978; details: MDR1 mutant dog breeds; cited from earlier work
# [10] = test system: Clu-GABARs; assay: Voltage-clamp inhibition, summary over the five canine subunit combinations; type: cell-based, Canis lupus familiaris; details: at 30 μM
# Protocol: as §2
# as §3, with “equations. The concentration-activation curves were fitted using the following equation: Y=100/1+10^H(logEC50-X) where Y is the normalized response, logEC50 is the logarithm of the concentration of agonist eliciting half-maximal current amplitude, X is the log of the dose or concentration, and H is the slope factor or Hill slope. The same equation was used for the concentration-inhibition curves but logEC50 was replaced by logIC50 (half-maximal inhibitory concentration).” for “equations.”
# as §4
# [11] = test system: Hsa-GABARs; assay: Voltage-clamp inhibition, summary over the six human subunit combinations; details: for average GABA current inhibition: at 30 μM, average over Hsa-GABARs; for inhibition of human GABARs (in words): tested up to 30 μM
# Protocol: as §2
# as §3, with “equations. The concentration-activation curves were fitted using the following equation: Y=100/1+10^H(logEC50-X) where Y is the normalized response, logEC50 is the logarithm of the concentration of agonist eliciting half-maximal current amplitude, X is the log of the dose or concentration, and H is the slope factor or Hill slope. The same equation was used for the concentration-inhibition curves but logEC50 was replaced by logIC50 (half-maximal inhibitory concentration).” for “equations.”
# as §4
# [12] = target: Clu-GABA α3β2γ2 (Canis lupus familiaris, UniProt A0A8I3PRS3+A0A8I3RPG5+E2RSQ0); assay: Two-electrode voltage-clamp inhibition of GABA current, receptor expressed in Xenopus oocytes; type: cell-based
# Text: as §1, §2, §3
# [13] = target: Clu-GABA α1β2γ2 (Canis lupus familiaris, UniProt A0A2H4NNI8+A0A8I3RPG5+E2RSQ0); assay: as above; type: cell-based
# Text: as §1, §2, §3
# [14] = target: Clu-GABA α2β2γ2 (Canis lupus familiaris, UniProt A0A8I3RPG5+A0A8I3S1N5+E2RSQ0); assay: as above; type: cell-based
# Chain of Clu-GABA α2β2γ2 (A0A8I3S1N5 29-451): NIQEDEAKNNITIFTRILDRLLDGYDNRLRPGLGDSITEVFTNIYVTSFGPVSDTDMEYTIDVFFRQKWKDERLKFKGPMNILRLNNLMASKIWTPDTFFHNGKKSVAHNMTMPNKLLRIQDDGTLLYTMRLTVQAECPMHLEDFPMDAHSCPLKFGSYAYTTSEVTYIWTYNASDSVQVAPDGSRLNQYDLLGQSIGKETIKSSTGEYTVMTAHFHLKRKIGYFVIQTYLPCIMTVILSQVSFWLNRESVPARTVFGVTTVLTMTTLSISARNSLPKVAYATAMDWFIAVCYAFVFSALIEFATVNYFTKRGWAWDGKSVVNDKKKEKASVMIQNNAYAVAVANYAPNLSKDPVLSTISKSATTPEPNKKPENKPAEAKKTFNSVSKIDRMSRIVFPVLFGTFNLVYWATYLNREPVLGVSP
# Chain of Clu-GABA α2β2γ2 (A0A8I3RPG5 25-473): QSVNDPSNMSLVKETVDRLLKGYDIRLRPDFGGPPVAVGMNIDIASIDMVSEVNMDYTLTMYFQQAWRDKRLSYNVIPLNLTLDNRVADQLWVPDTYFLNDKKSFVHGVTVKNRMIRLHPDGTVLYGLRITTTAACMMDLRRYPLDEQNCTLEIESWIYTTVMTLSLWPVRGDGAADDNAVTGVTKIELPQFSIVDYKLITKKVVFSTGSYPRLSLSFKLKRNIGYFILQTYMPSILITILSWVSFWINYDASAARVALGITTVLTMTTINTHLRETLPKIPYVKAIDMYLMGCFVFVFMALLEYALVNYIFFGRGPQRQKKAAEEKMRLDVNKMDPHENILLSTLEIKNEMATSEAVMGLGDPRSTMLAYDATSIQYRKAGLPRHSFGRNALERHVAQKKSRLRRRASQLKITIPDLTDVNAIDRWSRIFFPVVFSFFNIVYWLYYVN
# Chain of Clu-GABA α2β2γ2 (E2RSQ0 40-467): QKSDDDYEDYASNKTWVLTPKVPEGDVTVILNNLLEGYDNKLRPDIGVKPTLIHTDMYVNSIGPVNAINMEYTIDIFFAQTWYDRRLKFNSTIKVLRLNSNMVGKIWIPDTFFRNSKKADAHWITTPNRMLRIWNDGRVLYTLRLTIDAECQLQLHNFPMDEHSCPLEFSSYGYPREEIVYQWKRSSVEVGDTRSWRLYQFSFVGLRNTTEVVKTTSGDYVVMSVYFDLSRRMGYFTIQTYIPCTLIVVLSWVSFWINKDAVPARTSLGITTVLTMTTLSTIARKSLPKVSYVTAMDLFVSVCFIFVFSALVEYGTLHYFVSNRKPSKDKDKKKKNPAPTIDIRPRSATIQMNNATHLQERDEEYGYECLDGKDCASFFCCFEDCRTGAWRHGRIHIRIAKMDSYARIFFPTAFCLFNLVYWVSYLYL
# Text: as §1, §2, §3
# [15] = target: Clu-GABA α2β3γ2 (Canis lupus familiaris, UniProt A0A8I3NUI4+A0A8I3S1N5+E2RSQ0); assay: as above; type: cell-based
# Chain of Clu-GABA α2β3γ2 (A0A8I3S1N5 29-451): as the sequence (A0A8I3S1N5 29-451) above
# Chain of Clu-GABA α2β3γ2 (A0A8I3NUI4 101-496): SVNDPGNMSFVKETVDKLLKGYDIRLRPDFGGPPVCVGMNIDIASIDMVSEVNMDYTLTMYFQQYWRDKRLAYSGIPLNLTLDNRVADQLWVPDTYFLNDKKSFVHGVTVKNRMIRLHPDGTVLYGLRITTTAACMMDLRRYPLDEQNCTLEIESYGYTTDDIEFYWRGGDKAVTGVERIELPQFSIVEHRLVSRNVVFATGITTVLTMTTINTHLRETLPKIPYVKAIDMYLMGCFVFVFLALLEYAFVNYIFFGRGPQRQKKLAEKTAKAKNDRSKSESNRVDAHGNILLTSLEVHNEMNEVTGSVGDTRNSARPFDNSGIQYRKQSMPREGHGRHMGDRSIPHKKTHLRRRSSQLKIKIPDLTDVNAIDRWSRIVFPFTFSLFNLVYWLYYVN
# Chain of Clu-GABA α2β3γ2 (E2RSQ0 40-467): as the sequence (E2RSQ0 40-467) above
# Text: as §1, §2, §3
# [16] = target: Clu-GABA α5β2γ2 (Canis lupus familiaris, UniProt A0A8I3PC22+A0A8I3RPG5+E2RSQ0); assay: as above; type: cell-based
# Text: as §1, §2, §3
# [17] = test system: human and dog GABAA receptor containing the γ2 subunit; assay: Positive modulation by diazepam to confirm γ2 incorporation; type: cell-based; details: all receptor subtypes expressed; data not shown
# Protocol: as §2
# [18] = set-up: method as in earlier work; details: mdr1 mutant mouse model; cited from earlier work
# [19] = Xenopus oocytes, −80 mV, 60 s pre-exposure, co-applied with GABA 3 µM (near EC10)
# [20] = Xenopus oocytes, −80 mV, 60 s pre-exposure, co-applied with GABA 1 µM (near EC10)
# [21] = Xenopus oocytes, −80 mV, 60 s pre-exposure, co-applied with GABA 0.3 µM (near EC10)
# [22] = Xenopus oocytes, −80 mV, 60 s pre-exposure, co-applied with GABA 0.5 µM (near EC10)
# [23] = Xenopus oocytes, −80 mV, 60 s pre-exposure, co-applied with GABA 5 µM (near EC10)
# Chain of Hsa-GABA α2β2γ2 (P47869 29-451): as the sequence (A0A8I3S1N5 29-451) above
# Chain of Hsa-GABA α2β2γ2 (P47870 26-474 isoform P47870-1 limits assumed): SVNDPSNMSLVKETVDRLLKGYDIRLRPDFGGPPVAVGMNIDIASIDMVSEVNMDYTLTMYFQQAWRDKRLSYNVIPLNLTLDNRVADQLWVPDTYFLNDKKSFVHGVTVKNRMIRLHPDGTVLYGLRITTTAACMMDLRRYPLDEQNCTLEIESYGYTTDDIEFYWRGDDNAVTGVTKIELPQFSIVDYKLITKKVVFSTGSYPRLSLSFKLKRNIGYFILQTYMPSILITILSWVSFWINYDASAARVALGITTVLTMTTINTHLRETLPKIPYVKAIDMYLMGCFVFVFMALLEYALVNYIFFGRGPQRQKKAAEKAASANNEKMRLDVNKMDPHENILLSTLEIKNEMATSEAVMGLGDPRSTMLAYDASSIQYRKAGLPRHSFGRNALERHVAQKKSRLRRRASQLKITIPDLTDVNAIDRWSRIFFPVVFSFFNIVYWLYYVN
# Chain of Hsa-GABA α2β2γ2 (P18507 40-467 isoform P18507-1 limits assumed): as the sequence (E2RSQ0 40-467) above
SMILES,inhibitory effect on human and canine GABARs (in words) [7],maximum in vivo concentration in dog plasma [8] [µM],average GABA current inhibition [10] [%],average GABA current inhibition [11] [%],"IC50 [1, 19] [µM]","IC50 [2, 20] [µM]","IC50 [3, 21] [µM]","IC50 [4, 20] [µM]","IC50 [5, 21] [µM]","IC50 [6, 20] [µM]",inhibition of human GABARs (in words) [11],"IC50 [12, 22] [µM]","IC50 [13, 20] [µM]","IC50 [14, 23] [µM]","IC50 [15, 20] [µM]","IC50 [16, 20] [µM]",other results
"Cc1cc(C2=NO[C@@](c3cc(Cl)c(Cl)c(Cl)c3)(C(F)(F)F)C2)sc1C(=O)NCC(=O)NCC(F)(F)F [Lotilaner, lotilaner]",inactive,6.7,20,13,–,–,–,–,–,–,–,–,–,–,–,–,IC50 [1]: > 30 µM; IC50 [2]: > 30 µM; IC50 [3]: > 30 µM; IC50 [4]: > 30 µM; IC50 [5]: > 30 µM; IC50 [6]: > 30 µM; IC50 ([7]; range or bound over all eleven subunit combinations): > 30 µM; inhibitory effect on human and canine GABARs (in words) ([7]; listed as lotilaner): little or no inhibitory effect; also recorded: did not show any significant inhibition; neurological symptoms (in words) [9]: did not reveal neurological symptoms; IC50 [12]: > 30 µM; IC50 [13]: > 30 µM; IC50 [14]: > 30 µM; IC50 [15]: > 30 µM; IC50 [16]: > 30 µM
CN1C(=O)CN=C(c2ccccc2)c2cc(Cl)ccc21 [diazepam],–,–,–,–,–,–,–,–,–,–,–,–,–,–,–,–,positive modulation [17]: > 200%
"Cc1cc(C2=NOC(c3cc(Cl)cc(Cl)c3)(C(F)(F)F)C2)ccc1C(=O)NCC(=O)NCC(F)(F)F (centres unmarked) [Fluralaner, fluralaner]",partial to high inhibition,–,76,82,1.9,4.9,2.2,5.5,2.7,5.7,high inhibition,9.4,4.3,2.2,13,2.3,current inhibition ([1]; at 30 μM): > 90%; current inhibition ([3]; at 30 μM): > 90%; current inhibition ([5]; at 30 μM): > 90%; maximum plasma concentration ([8]; converted from ng/ml): 6.1 µM; maximum plasma concentration [8]: 3400 ng/mL; brain penetration (in words) [18]: brain penetration of fluralaner was observed
"O=C(CNC(=O)c1ccc(C2=NOC(c3cc(Cl)cc(C(F)(F)F)c3)(C(F)(F)F)C2)c2ccccc12)NCC(F)(F)F (centres unmarked) [Afoxolaner, afoxolaner]",partial to high inhibition,–,57,59,9.9,15,11.7,20.5,6.3,–,–,17.9,3,20.6,15.7,7.4,"Cmax ([8]; oral dosing at 2.5 mg/kg, read-out: Cmax (peak concentration in the bloodstream)): 4.7 µM"
"CS(=O)(=O)CC(=O)N1CC2(C1)OCc1cc(C3=NO[C@@](c4cc(Cl)c(F)c(Cl)c4)(C(F)(F)F)C3)ccc12 [Sarolaner, sarolaner]",partial to high inhibition,1.9,57,53,19.5,13.4,16.1,> 30,8.4,21.9,partial inhibition,13.1,21.8,10.2,13.4,10.2,"Cmax ([8]; dose of 2 mg/kg body weight, read-out: Cmax in dog plasma): 1.9 µM"
